Earlier results in Sander's compilation of Henry's law constants.
Blank lines part the entries; values can stand above or below the molecule they belong to.

Assay: Henry solubility constant Hcp at 298.15 K (mol/(m3 Pa))
Settings: cited value
[1] = reference: Gaffney and Senum (1984)
[2] = reference: Burkholder et al. (2015)
[3] = reference: Burkholder et al. (2019)
[4] = reference: Sander et al. (2011)
[5] = reference: Fogg and Sangster (2003)
[6] = reference: Hine and Weimar (1965)
[7] = reference: Mackay et al. (1995)

SMILES: CC(C)C#N [2-methylpropanenitrile]
- Henry solubility constant Hcp (reference: Brockbank (2013)): 0.11
- Henry solubility constant Hcp (reference: Plyasunov et al. (2006)): 0.1

SMILES: O=Cc1ccccc1 [benzaldehyde]
- Henry solubility constant Hcp (reference: Brockbank (2013)): 0.4
- Henry solubility constant Hcp [1]: 0.36

- Henry solubility constant Hcp (reference: Brockbank (2013)): 0.023
SMILES: CC(C)C(=O)C(C)C [2,4-dimethyl-3-pentanone]

- Henry solubility constant Hcp (reference: Brockbank (2013)): 0.034
SMILES: CCCCCCC=O [heptanal]

SMILES: FOF [difluorine monoxide]
- Henry solubility constant Hcp (reference: Schäfer and Lax (1962)): 2.9e-05

- Henry solubility constant Hcp (reference: Brockbank (2013)): 5.7e-06
SMILES: CCCCCC [hexane]

SMILES: O=C(O)C(Cl)Cl [dichloroethanoic acid]
- Henry solubility constant Hcp [2]: 1200
- Henry solubility constant Hcp [3]: 1200
- Henry solubility constant Hcp [4]: 1200

SMILES: CC(=O)C(Cl)Cl [1,1-dichloro-2-propanone]
- Henry solubility constant Hcp [2]: 0.33
- Henry solubility constant Hcp [3]: 0.33

- Henry solubility constant Hcp (reference: Brockbank (2013)): 0.35
SMILES: CCCCCCN [1-hexanamine]

SMILES: CC(C)=O [propanone]
- Henry solubility constant Hcp (reference: Brockbank (2013)): 0.29
- Henry solubility constant Hcp [2]: 0.27
- Henry solubility constant Hcp [3]: 0.27
- Henry solubility constant Hcp (reference: Butler and Ramchandani (1935)): 0.3
- Henry solubility constant Hcp (reference: Cabani et al. (1981)): 0.27
- Henry solubility constant Hcp [5]: 0.26
- Henry solubility constant Hcp [1]: 0.3
- Henry solubility constant Hcp [6]: 0.031
- Henry solubility constant Hcp (reference: Poulain et al. (2010)): 0.33
- Henry solubility constant Hcp (reference: Sander et al. (2006)): 0.28
- Henry solubility constant Hcp [4]: 0.27
- Henry solubility constant Hcp (reference: Schaffer and Daubert (1969)): 0.22

- Henry solubility constant Hcp (reference: Brockbank (2013)): 8.5e-05
SMILES: C#CCCCCCCC [1-nonyne]

SMILES: OCCCCO [1,4-butanediol]
- Henry solubility constant Hcp [2]: 35000
- Henry solubility constant Hcp [3]: 35000

- Henry solubility constant Hcp [6]: 0.0098
SMILES: COC [dimethyl ether]

- Henry solubility constant Hcp (reference: Brockbank (2013)): 0.0029
SMILES: CCCOCCC [dipropyl ether]

SMILES: ClCC(Cl)Cl [1,1,2-trichloroethane]
- Henry solubility constant Hcp (reference: Barr and Newsham (1987)): 0.011
- Henry solubility constant Hcp (reference: Brockbank (2013)): 0.011
- Henry solubility constant Hcp [2]: 0.011
- Henry solubility constant Hcp [3]: 0.011
- Henry solubility constant Hcp [5]: 0.012
- Henry solubility constant Hcp (reference: Goldstein (1982)): 0.012

- Henry solubility constant Hcp (reference: Brockbank (2013)): 0.34
- Henry solubility constant Hcp [5]: 0.23
- Henry solubility constant Hcp (reference: Goldstein (1982)): 0.093
- Henry solubility constant Hcp (reference: McCarty (1980)): 0.076
SMILES: c1ccc2c(c1)ccc1ccccc12 [phenanthrene]

SMILES: ClC1=C(Cl)C(Cl)(Cl)C(Cl)=C1Cl [hexachlorocyclopentadiene]
- Henry solubility constant Hcp (reference: Goldstein (1982)): 0.0006

SMILES: C=C(Cl)Cl [1,1-dichloroethene]
- Henry solubility constant Hcp (reference: Brockbank (2013)): 0.00031
- Henry solubility constant Hcp [2]: 0.00037
- Henry solubility constant Hcp [3]: 0.00037
- Henry solubility constant Hcp [5]: 0.0004
- Henry solubility constant Hcp (reference: Goldstein (1982)): 0.00064

- Henry solubility constant Hcp (reference: Brockbank (2013)): 0.33
- Henry solubility constant Hcp [5]: 0.17
- Henry solubility constant Hcp (reference: Goldstein (1982)): 0.35
- Henry solubility constant Hcp (reference: McCarty (1980)): 0.007
- Henry solubility constant Hcp (reference: Smith et al. (1981a)): 0.1
SMILES: c1ccc2cc3ccccc3cc2c1 [anthracene]

SMILES: COc1ccc(-c2ccccc2)cc1NNC(=O)OC(C)C [bifenazate]
- Henry solubility constant Hcp (reference: MacBean (2012b)): 1000

SMILES: Brc1ccccc1 [bromobenzene]
- Henry solubility constant Hcp (reference: Brockbank (2013)): 0.0043
- Henry solubility constant Hcp [5]: 0.005
- Henry solubility constant Hcp (reference: HSDB (2015)): 0.0047

- Henry solubility constant Hcp (reference: Brockbank (2013)): 0.068
SMILES: CCCCCC(C)=O [2-heptanone]

SMILES: ClCC(Cl)(Cl)Cl [1,1,1,2-tetrachloroethane]
- Henry solubility constant Hcp (reference: Brockbank (2013)): 0.0042
- Henry solubility constant Hcp [2]: 0.0042
- Henry solubility constant Hcp [3]: 0.0042

SMILES: C=CC#N [2-propenenitrile]
- Henry solubility constant Hcp (reference: Brockbank (2013)): 0.1
- Henry solubility constant Hcp (reference: Goldstein (1982)): 0.11
- Henry solubility constant Hcp [7]: 0.11

- Henry solubility constant Hcp (reference: Brockbank (2013)): 7.3e-05
SMILES: C1CCCCCCC1 [cyclooctane]

SMILES: CC(=O)OCC(F)(F)F [2,2,2-trifluoroethyl ethanoate]
- Henry solubility constant Hcp [2]: 0.0055
- Henry solubility constant Hcp [3]: 0.0055
- Henry solubility constant Hcp [4]: 0.0055

SMILES: Brc1ccc(Oc2ccc(Br)cc2Br)cc1 [2,4,4'-tribromodiphenyl ether]
- Henry solubility constant Hcp (reference: Wania and Dugani (2003)): 0.52

- Henry solubility constant Hcp (reference: MacBean (2012b)): > 3700
SMILES: S=C([S-])NCCNC(=S)[S-].[Zn+2] [zineb]

- Henry solubility constant Hcp (reference: Brockbank (2013)): 0.13
SMILES: CCCCNCCCC [dibutylamine]

- Henry solubility constant Hcp (reference: Mackay et al. (1992b)): 13
SMILES: c1cc2ccc3ccc4ccc5cccc6c(c1)c2c3c4c56 [benzo[ghi]perylene]

- Henry solubility constant Hcp (reference: Brockbank (2013)): 0.0009
SMILES: CC(C)c1ccccc1 [(2-propyl)-benzene]

SMILES: CCCBr [1-bromopropane]
- Henry solubility constant Hcp (reference: Brockbank (2013)): 0.0011

SMILES: Nc1ccc(-c2ccc(N)c(Cl)c2)cc1Cl [3,3'-dichloro-(1,1'-biphenyl)-4,4'-diamine]
- Henry solubility constant Hcp [7]: 12
